Experimental findings from US9708247B2, “Modulators of the eIF2alpha pathway” (The Regents of the University of California, priority 2013, dated 2017) are described below.

“Also recorded” adds a separate entry of the source. Where two headings read alike, the source gives them in different places.

For one assay, the system named is ATF4 luciferase reporter. In words: ATF4 luciferase reporter assay (Cell-luc) in HEK293T cells. It is filed as cell-based, human. Put shortly: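 HEK293T cells stably carrying a human ATF4 5′-UTR (uORFs 1 and 2)–firefly luciferase reporter, treated with compound; luminescence measured at end point. Inhibition normalized to no-ER-stress DMSO control (100%).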
A general note: In a reporter assay the amount or activity of a reporter protein is the signal.

Another assay deals with RPMI 8226 cells. In words: Multiple myeloma xenograft model (RPMI 8226, BALB/c scid mice). It is filed as in vivo, mouse. The conditions noted are these: 5 mg/kg orally, daily.

In general, IC50 refers to the concentration needed to halve the response being measured.

Take `O=C(COc1ccc(Cl)cc1)NC1CCC(NC(=O)COc2ccc(Cl)cc2)CC1` (stereo not shown) [ISRIB]: the IC50 in the assay on ATF4 luciferase reporter (cultured HEK293T cells, 2 μg/ml tunicamycin, 7 h, synthesized isomers, read-out: IC50, inhibition of the ATF4-luciferase reporter) is 5 nM; in the assay with ATF4 luciferase reporter (screening library sample, likely a mixture of the two stereoisomers, read-out: IC50 of the library compound) it was 40 nM. In the assay with RPMI 8226 cells, the “tumor growth / tumor size vs vehicle (in words)” value is recorded as “significant difference in tumor size; also recorded: significant reduction in the rate of tumor growth”. For the same compound, the “reduction in tumor size at the endpoint of the study” value in the assay with RPMI 8226 cells (26 days of dosing) is reported as 50%.
